Test results: patent US20040044028A1, “Combinations of omega-3 fatty acids and cyclooxygenase-2 inhibitors for treatment or prevention of cardiovascular disease and treatment or prevention of cancer” (priority 2001, published 2004)
Marks after values point to notes of the source that are not given here. Each block holds one compound with its values, some of them ahead of it.

Legend:
mouse liver [1] = tested on: mouse liver; set-up: species or system mice; details: in vivo
Description: (§1) The metabolism of stearidonic acid to long chain n-3 polyunsaturated fatty acids (i.e., eicosapentaenoic acid (EPA), docosapentaenoic acid (DPA n-3) and docosahexaenoic acid (DHA)) in mouse liver is compared to that of α-linolenic acid, eicosapentaenoic acid and docosahexaenoic acid. The method used is a non-radioactive, dose response, metabolic end-point study.
Mice are fed a US 17 diet containing α-linolenic acid ethyl ester (ALA-EE), stearidonic acid ethyl ester (SDA-EE), eicosapentaenoic acid ethyl ester (EPA-EE), or docosahexaenoic acid ethyl ester (DHA-EE) in an amount equivalent to a human western diet containing 1, 3 or 10 g/day of the fatty acid (g/day human equivalent dose). In order to maintain a 17% fat (37% energy) content in the US17 diet, oleic acid (18:1 n-9), as an oleic acid cassette, is removed from the US17 diet in an amount equal to the amount of fatty acid ester that is added. Oleic acid is selected as the replacement fatty acid because literature reports indicate that oleic acid is neutral with respect to inflammation and cancer.
After one month on the respective US17-based diets, the mice are sacrificed and the fatty acid composition of each of their livers is analyzed by gas chromatography. The sum of the long chain n-3 PUFAs (i.e., EPA+DPA n-3+DHA) increases dose dependently in liver tissue in the following rank order: DHA-EE>EPA-EE>SDA-EE>ALA-EE. […] Each of the dietary n-3 PUFAs decreases the level of arachidonic acid in liver tissue dose dependently. This is significant because arachidonic acid metabolites (e.g., prostaglandins, leukotrienes, and HETEs (hydroxyeicosatetraenoic acid)) are correlated with cardiovascular disease, inflammation, and tumorigenesis. The group “basal” refers to mice that are fed the standard rodent chow diet just prior to switching to diets that are US17 based.

HepG2 cells = assay: Metabolism of 14C fatty acids to long chain n-3 PUFAs, EPA and DHA in HepG2 cells; format: in vitro ADME; details: for metabolized to DHA / metabolized to EPA: 20 μM 14C fatty acid
Method: To a culture medium containing HepG2 cells is added 20 μM ^14C-ALA, ^14C-SDA or ^14C-EPA complexed to fatty acid free BSA. The amount of ^14C-ALA, ^14C-SDA or ^14C-EPA taken up by the HepG2 cells is measured at 6 hours, 24 hours and 48 hours after addition of the fatty acid. A scintillation counter is used to measure the total amount of radioactivity in the HepG2 cells and the amount remaining in the medium.
The metabolism of stearidonic acid to long chain n-3 PUFAs (eicosatetraenoic acid (20:4n-3), eicosapentaenoic acid (20:5n-3), docosapentaenoic acid (22:5n-3), and docosahexaenoic acid (22:6n-3)) in HepG2 cells is compared to that of α-linolenic acid. HepG2 cells are allowed to take up ^14C-ALA or ^14C-SDA as described in Example 2. The total amount of ^14C-EPA, ^14C-DPA and ^14C-DHA present in the HepG2 cells is measured at 6 hours, 24 hours and 48 hours after addition of the fatty acid by argentation thin layer chromatography (TLC). The amount of each fatty acid present as a band on the TLC plate is quantified by electronic autoradiography using an Instant Imager available from Packard (Meriden, Conn.).
HepG2 cells are allowed to take up ^14C-ALA, ^14C-SDA or ^14C-EPA as described in Example 2. The amount of ^14C-EPA and ^14C-DHA present in the HepG2 cells is measured at 6 hours, 24 hours and 48 hours after addition of the fatty acids by argentation thin layer chromatography (TLC) as described in Example 3. The amount of ^14C-EPA and ^14C-DHA present as bands on the TLC plate are quantified by electronic autoradiography using an Instant Imager as described in Example 3.

[2] = tested on: Min/+ mouse model of intestinal cancer; assay: Min/+ mouse model of intestinal cancer, intestinal polyp formation; format: in vivo; details: for mice with large intestine tumors / mice in group (in parentheses): seven weeks on US17 diet with fatty acid ethyl ester 3% wt. or sulindac 320 ppm; for effect on polyp number: differences not significant relative to the US17 control
Method: The efficacy of select n-3 and n-6 polyunsaturated fatty acids is evaluated in the Min/+ mouse model of intestinal cancer. The following fatty acid ethyl esters are tested for their effect on intestinal polyp formation: 1) ALA-EE; 2) SDA-EE; 3) EPA-EE; 4) DHA-EE; 5) GLA-EE ([…] adid, 18:3 n-6); and 6) CLA-EE (conjugated linoleic acid; c9t11-18:2 (77%)+c9c11-18:2 (18%)+other isomers (5%)).
These fatty acid ethyl esters are added to the US17 diet to provide 10 g/day human equivalent dose (3% wt.). The NSAID, sulindac (320 ppm), serves as the positive control. In order to maintain a 17% fat (37 en %) content in the US17 diet, oleic acid (18:1 n-9) is removed from the US17 diet in an amount equal to the amount of the fatty acid ethyl ester that is added. Mice are received at approximately five weeks of age and are fed the test diets upon receipt. After seven weeks on the respective test diet, the mice are sacrificed and the intestinal polyps are counted and measured.

[3] = tested on: small intestine tissue of Min/+ mouse; assay: Arachidonic acid level in small intestine tissue of Min/+ mice; format: in vivo; details: phospholipid fraction, ethyl ester 3% wt. in US17 diet
Method: The efficacy of select n-3 and n-6 polyunsaturated fatty acids in reducing the level of arachidonic acid in small intestine tissue is evaluated using the Min/+ mouse model.
The following fatty acid ethyl esters are tested for their effect on intestinal fatty acid composition: 1) ALA-EE; 2) SDA-EE; 3) EPA-EE; 4) DHA-EE; 5) GLA-EE; and 6) CLA-EE. Fatty acid composition is determined in the small intestine because that is where the vast majority of polyps form.
These fatty acid esters are added to the US17 diet as discussed in Example 8. The arachidonic acid level in the phospholipid fraction of the small intestines of the mice is determined by gas chromatography.

mouse liver [4] = assay: Metabolism in mice, time course analysis using radiolabeled fatty acids; format: in vivo; details: 10 μCi intraperitoneal, at 24 hours
Description: as §1, with “n-3),” for “n-3)”, “time course study using ^14C-labeled fatty acids.” for “non-radioactive, dose response, metabolic end-point study.”
Mice are fed the US 17 diet for a period of one month in order to achieve steady-state fatty acid metabolism. After achieving steady-state fatty acid metabolism, the mice are administered an intraperitoneal injection containing 10 μCi of ^14C-ALA, ^14C-SDA, ^14C-EPA or ^14C-DHA. Mice are sacrificed 3 hours, 8 hours or 24 hours post-injection, and the total amount of ^14C-EPA, ^14C-DPA n-3 and ^14C-DHA is measured by argentation thin layer chromatography followed by direct electronic autoradiography, as described in Example 3. The order of metabolism of the PUFAs is DHA=EPA>SDA>ALA at 24 hours. SDA is metabolized to long chain n-3 PUFAs more efficiently than ALA in vivo.

rat liver = assay: Metabolism in rats, end point analysis using cold fatty acid ethyl esters; format: in vivo; details: dietary ethyl esters
Method: Oleic acid is selected as the replacement fatty acid because literature reports indicate that oleic acid is neutral with respect to inflammation and cancer. After one month on the respective US17-based diets, the mice are sacrificed and the fatty acid composition of each of their livers is analyzed by gas chromatography. […] DHA-EE>EPA-EE>SDA-EE>ALA-EE. […] This is significant because arachidonic acid metabolites (e.g., prostaglandins, leukotrienes, and HETEs (hydroxyeicosatetraenoic acid)) are correlated with cardiovascular disease, inflammation, and tumorigenesis. The group “basal” refers to mice that are fed the standard rodent chow diet just prior to switching to diets that are US17 based. […] The method used is as described in Example 6 except that rats are used in place of mice.

[5] = Min/+ mice, seven weeks, ethyl ester 3% wt. or sulindac 320 ppm
[6] = Min/+ mice, seven weeks, ethyl ester 3% wt. or sulindac 320 ppm, mean ± SEM
[7] = large and small intestine, Min/+ mice, seven weeks, ethyl ester 3% wt. or sulindac 320 ppm, mean ± SEM
[8] = tumor number × tumor size, Min/+ mice, seven weeks, ethyl ester 3% wt. or sulindac 320 ppm, mean ± SEM

sum of the long chain n-3 PUFAs (EPA+DPA n-3+DHA) in liver tissue, rank order of dose dependent increase (mouse liver [1]): DHA-EE>EPA-EE>SDA-EE>ALA-EE
Compound: CC/C=C\C/C=C\C/C=C\CCCCCCCC(=O)OCC [ALA-EE, α-linolenic acid ethyl ester]

metabolized to DHA (HepG2 cells): 3%
metabolized to EPA (HepG2 cells): 24%
Compound: CC/C=C\C/C=C\C/C=C\CCCCCCCC(=O)O [Compound A-1, all cis 9,12,15-octadecatrienoic acid]
effectiveness in inhibiting polyp formation and development in the large intestine ([2]; Min/+ mice): marginally efficacious
Total large intestine tumors/group ([2]; Min/+ mice, seven weeks on US17 diet with fatty acid ethyl ester 3% wt. (10 g/day human equivalent dose) or sulindac 320 ppm): 8
Total small intestine tumors/group [2, 5]: 364
Avg. large intestine tumors/mouse [2, 6]: 0.8 ± 0.3^bcd
Avg. small intestine tumor size [2, 6]: 1.23 ± 0.04^ab mm
Avg. small intestine tumors/mouse [2, 6]: 36.4 ± 6.3^ab
Avg. large intestine tumor size ([2]; Min/+ mice, seven weeks, ethyl ester 3% wt. or sulindac 320 ppm, mean ± SEM, only animals bearing colonic tumors): 2.75 ± 0.46^ab
Total Avg. overall tumor size [2, 7]: 1.21 ± 0.03^bc mm
Total Avg. tumors/mouse [2, 7]: 37.2 ± 6.6^ab
mice with large intestine tumors / mice in group (in parentheses) [2]: 5/10
Total Avg. overall tumor load ([2]; tumor number × tumor size, large and small intestine, Min/+ mice, seven weeks, ethyl ester 3% wt. or sulindac 320 ppm, mean ± SEM): 45.97 ± 8.88^ab mm
Avg. large intestine tumor load [2, 8]: 2.15 ± 0.82^bcd mm
Avg. small intestine tumor load [2, 8]: 45.67 ± 8.66^ab mm

metabolism to long chain n-3 PUFAs, comparison (HepG2 cells): faster than that of ALA
metabolized to DHA (HepG2 cells): 6%
metabolized to EPA (HepG2 cells): 55%
order of metabolism of the PUFAs to long chain n-3 PUFAs (14C-EPA, 14C-DPA n-3, 14C-DHA) (mouse liver [4]): DHA=EPA>SDA>ALA
metabolism to long chain n-3 polyunsaturated fatty acids, comparison (rat liver): better than ALA
Compound: CC/C=C\C/C=C\C/C=C\C/C=C\CCCCC(=O)O [Compound A-2, all cis 6,9,12,15-octadecatetraenoic acid]
decreasing the level of arachidonic acid in the small intestine, comparison [3]: more effective than ALA, EPA and DHA
Total small intestine tumors/group [2, 5]: 18
Total Avg. tumors/mouse [2, 7]: 18.7 ± 1.9^c
mice with large intestine tumors / mice in group (in parentheses) [2]: 2/10
decrease in the level of arachidonic acid, comparison (rat liver): greater decrease in the level of arachidonic acid than does either ALA or EPA

Compound: CC/C=C\C/C=C\C/C=C\C/C=C\C/C=C\CCCC(=O)O [Compound A-4, all cis (5,8,11,14,17-eicosapentaenoic acid]
effectiveness in inhibiting polyp formation and development in the large intestine ([2]; Min/+ mice): marginally efficacious
Total small intestine tumors/group [2, 5]: 17
Total Avg. tumors/mouse [2, 7]: 18.5 ± 2.2^c
mice with large intestine tumors / mice in group (in parentheses) [2]: 6/10
Avg. small intestine tumor load [2, 8]: 18.34 ± 2.04^cd mm

order of metabolism of the PUFAs to long chain n-3 PUFAs (14C-EPA, 14C-DPA n-3, 14C-DHA) (mouse liver [4]): DHA=EPA>SDA>ALA
Compound: CC/C=C\C/C=C\C/C=C\C/C=C\C/C=C\C/C=C\CCC(=O)O [Compound A-6, all cis 4,7,10,13,16,19-docosahexanoic acid]
mice with large intestine tumors / mice in group (in parentheses) [2]: 9/10

sum of the long chain n-3 PUFAs (EPA+DPA n-3+DHA) in liver tissue, rank order of dose dependent increase (mouse liver [1]): DHA-EE>EPA-EE>SDA-EE>ALA-EE
Compound: CC/C=C\C/C=C\C/C=C\C/C=C\C/C=C\C/C=C\CCC(=O)OCC [DHA-EE, docosahexaenoic acid ethyl ester]

sum of the long chain n-3 PUFAs (EPA+DPA n-3+DHA) in liver tissue, rank order of dose dependent increase (mouse liver [1]): DHA-EE>EPA-EE>SDA-EE>ALA-EE
Compound: CC/C=C\C/C=C\C/C=C\C/C=C\C/C=C\CCCC(=O)OCC [EPA-EE, eicosapentaenoic acid ethyl ester]

Compound: CCCCC/C=C\C/C=C\C/C=C\CCCCC(=O)O [GLA, γ-linolenic acid, reference compound]
Total small intestine tumors/group [2, 5]: 42
effect on polyp number ([2]; Min/+ mice): appears to increase polyp number
mice with large intestine tumors / mice in group (in parentheses) [2]: 6/9

sum of the long chain n-3 PUFAs (EPA+DPA n-3+DHA) in liver tissue, rank order of dose dependent increase (mouse liver [1]): DHA-EE>EPA-EE>SDA-EE>ALA-EE
Compound: CC/C=C\C/C=C\C/C=C\C/C=C\CCCCC(=O)OCC [SDA-EE, stearidonic acid ethyl ester]

Compound: CC1=C(CC(=O)O)c2cc(F)ccc2/C1=C\c1ccc([S+](C)[O-])cc1 (centres unmarked) [Sulindac, sulindac, reference compound]
Avg. large intestine tumors/mouse [2, 6]: 0.2 ± 0.2^ad
mice with large intestine tumors / mice in group (in parentheses) [2]: 2/9

Compound: conjugated linoleic acid [CLA, reference compound]
Total small intestine tumors/group [2, 5]: 40
effect on polyp number ([2]; Min/+ mice): appears to increase polyp number
mice with large intestine tumors / mice in group (in parentheses) [2]: 5/9
